Assay [1] concerns BXPC-3 cells. The assay can be described thus: Pancreatic cancer model: subcutaneous BXPC-3 tumors in mice. As to conditions: orally 40 mg/kg/day, 25 daily doses, p=0.0309. Format: in vivo, human. On the procedure:
(§1) The activity of Compound 42 was further tested in a human pancreatic model: BXPC-3 cells were implanted subcutaneously into the flanks of the right legs of mice. On day 42 post-tumor implant, the mice were randomized into two groups to receive either Vehicle (30% HPBCD) or Compound 42. Compound 42 administered orally at 40 mg/kg/day. […] At the end of the study, the tumors were harvested 4 hours post the last dose to evaluate an on target response by q-RT-PCR analysis of the HH pathway genes.

In assay [2] the test system is human Gli-1. As to the kind of experiment: q-RT-PCR of HH pathway genes in harvested BXPC-3 tumors, human Gli-1. The class given is in vivo. As to conditions: tumors harvested 4 hours post last dose, 40 mg/kg/day orally. On the procedure:
as §1

The test system of assay [3] is NCI-H929. The assay can be described thus: Multiple myeloma colony growth in methylcellulose, NCI-H929. The class given is cell-based, human. As to conditions: NCI-H929, treated 96 hours, colonies quantified 10-21 days later. On the procedure: (§2) The ability of Compound 42 to inhibit the growth of multiple myeloma cells (MM) in vitro was tested, using human multiple myeloma cells lines (NCI-H929 and KMS12) and primary clinical bone marrow specimens derived from patients with MM. The cells were treated for 96 hours with Compound, washed, then plated in methylcellulose. Tumor colonies were quantified 10-21 days later as an indicator of cell growth potential following treatment.

Assay [4] has as its system primary clinical bone marrow specimens derived from patients with MM. As to the kind of experiment: Multiple myeloma colony growth in methylcellulose, primary clinical specimens. The class given is cell-based, human. As to conditions: primary clinical MM samples, treated 96 hours, colonies quantified 10-21 days later. On the procedure:
as §2

Assay [5] relates to U937. As to the kind of experiment: AML colony formation in methylcellulose, U937. Format: cell-based, human. As to conditions: 1.0 um, 72 hours. On the procedure:
(§3) The ability of Compound 42 to inhibit the in vitro growth of human cell lines derived from patients with acute myeloid leukemia (AML, cell line U937) and myelodysplastic syndrome (MDS, cell line KG1 and KG1a) was studied. Each of the cell lines was treated for 72 hours with Compound 42 (1.0 um) followed by plating in methylcellulose.

The subject of assay [6] is KG1. The assay can be described thus: MDS colony formation in methylcellulose, KG1. Format: cell-based, human. As to conditions: 1.0 um, 72 hours. On the procedure: as §3
Assay [7] deals with KG1a. As to the kind of experiment: MDS colony formation in methylcellulose, KG1a. The class given is cell-based, human. As to conditions: 1.0 um, 72 hours. On the procedure: as §3
Assay [8] has as its system L428. The assay can be described thus: Hodgkin's disease colony formation in methylcellulose, L428. The class given is cell-based, human. As to conditions: L428 (HD), 1.0 um, 72 hours. On the procedure:
(§4) The ability of Compound 42 to inhibit the in vitro growth of human cell lines derived from patients with non-Hodgkin's lymphoma (cell lines RL and Jeko-1) and Hodgkin's disease (cell line L428) was studied. Each of the cell lines was treated for 72 hours with Compound 42 (1.0 um) followed by plating in methylcellulose.

Assay [9] deals with Jeko-1. The assay can be described thus: NHL colony formation in methylcellulose, Jeko-1. The class given is cell-based, human. As to conditions: Jeko-1 (NHL), 1.0 um, 72 hours. On the procedure:
as §4

In assay [10] the test system is REH. As to the kind of experiment: ALL colony formation in methylcellulose, REH. The class given is cell-based. As to conditions: treated 72 hours. On the procedure: The effect of Compound 42 on the growth of two of these cell lines, treated in vitro for 72 hours, was also studied. Following treatment, cells were washed and plated in methylcellulose.

`CC1=C2C[C@H]3[C@@H](CC[C@@H]4C[C@H](NS(C)(=O)=O)CC[C@@]43C)[C@@H]2CC[C@@]2(C1)O[C@@H]1C[C@H](C)CN[C@H]1[C@H]2C` [Compound 42]: the “reduction of tumor volume growth compared to vehicle control” value in assay [1] is 40%. The “human Gli-1 modulation (q-RT-PCR)” value in assay [2] is “no modulation”. The “growth of cells relative to untreated control (100%)” value in assay [3] and in assay [4] was “less than 25%” each time. In addition, the “% colony formation with Compound 42 (relative to vehicle control)” value in assay [5] is given as 43.4%; in [6], 25.1%; in [7], 34.6%; in assay [8] it was 21.4%; in assay [9], 27.4%. Besides, in assay [10], the “colony formation with Compound (relative to vehicle control) - 1° plating” value came to 63. Besides, in assay [10] (replating of colonies), the “colony formation with Compound (relative to vehicle control) - 2° plating” value stood at 9.

These data come from patent US10314827B2, “Methods of use of cyclopamine analogs” (Infinity Pharmaceuticals, Inc., priority 2006, dated 2019).
